Test results reported in patent US10183936B2, “Hepatitis B core protein allosteric modulators” (priority 2014, dated 2019).

Columns and labels:
AD38 cells = experiment: Viability of AD38 cells (Promega CellTiter-Glo) at the end of compound treatment; assay type: cell-based; settings: 10 μM compound, 6 days, luminescence normalized against DMSO control wells (controls being 100%)
Summary of the method: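 Luminescent CellTiter-Glo read-out, taken after supernatant was swapped for tetracycline-free 2% FBS medium with 1% DMSO, gave percent viability relative to DMSO controls set at 100%. Cells were plated at 50,000/well and exposed to compound, added as a 10× stock in 10% DMSO, for 6 days at 37° C.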

[1] = test system: HBV viral production in AD38 cells; experiment: Viral load production in AD38 cells by quantitative PCR of the HBV core sequence in supernatant; assay type: cell-based; settings: 10 μM compound, 6 days at 37° C., viral load in supernatant compared against DMSO control wells; for activity at 10 µM: Hepatitis B virus, 144 h, read-out: AD38 Viral Load (CpAM/DMSO %) at 10 μM
Summary of the method: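 Read-out is TaqMan qPCR of the HBV core region in supernatant, quantitated against standards and referenced to DMSO controls (≥3 per plate). Cells: AD38 at 50,000/well, exposed to compound (added as 10× stock in 10% DMSO) for 6 days at 37° C.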

| Compound | AD38 Viability Normalized Result (CPAM/DMSO %) at 10 μM (AD38 cells) [%] | activity at 10 µM [1] [%] | AD38 Viral Load (CpAM/DMSO %) at 10 μM [1] [%] |
| --- | --- | --- | --- |
| O=C(NCCc1cncnc1)c1ccc2c(c1)NC(=O)c1ccccc1[S+]2[O-] (centres unmarked) [Compound 1423] | 91 | 37 |  |
| O=C1Nc2cc(S(=O)(=O)NCc3ccccc3)ccc2Sc2ccccc21 [Compound 1414] | 89 | 39 |  |
| CN1c2ccc(C(=O)NCc3cncs3)cc2NC(=O)c2ccccc21 [Compound 1581] | 97 | 3 |  |
| O=C(NCCc1ccc(-c2ccccc2)cc1)c1ccc2c(c1)NC(=O)c1ccccc1[S+]2[O-] (centres unmarked) [Compound 1476] | 86 | 1 |  |
| COC(=O)C(Cc1cncnc1)NC(=O)c1ccc2c(c1)NC(=O)c1cc(F)ccc1S2 (centres unmarked) [Compound 1342, Methyl 2-(2-fluoro-11-oxo-10, 11-dihydrodibenzo [b,f] [1,4]thiazepine-8-carboxamido)-3-(pyrimidin-5-yl) propanoate] | 95 |  | 113 |
| O=C1Nc2c(cc(F)c(C(=O)NCCc3cncs3)c2F)Sc2ccccc21 [Compound 1563] | 93 | 41 |  |
| O=C(NCc1nncs1)c1ccc2c(c1)NC(=O)c1ccccc1S2 [Compound 1571] | 117 | 35 |  |
| CCN1c2ccc(C(=O)NCCc3cncs3)cc2NC(=O)c2ccccc21 [Compound 1566] | 91 | 31 |  |
| O=C(NCCC1CCCCC1)c1ccc2c(c1)NC(=O)c1cc(F)ccc1S2 [Compound 1285] | 108 | 3 |  |
| O=C(Nc1ccc(Cl)cn1)c1ccc2c(c1)NC(=O)c1cc(F)ccc1S2 [Compound 1338] | 118 | 70 |  |
| O=C(NCCc1ccccc1)c1ccc2c(c1)Sc1ccccc1C(=O)N2 [Compound 1200] | 125 | 18 |  |
| Cc1ccc(CNC(=O)c2ccc3c(c2)NC(=O)c2ccccc2S3)cc1 [Compound 1164] | 103 | 27 |  |
| Cc1ncc(CNC(=O)c2ccc3c(c2)NC(=O)c2ccccc2S3)s1 [Compound 1588] | 98 | 0 |  |
| O=C(Nc1ccncc1)c1ccc2c(c1)NC(=O)c1ccccc1[S+]2[O-] (centres unmarked) [Compound 1382] | 117 | 47 |  |
| O=C(NCc1nnc[nH]1)c1ccc2c(c1)NC(=O)c1ccccc1S2 [Compound 1599] | 101 | 72 |  |
| O=C(NC[C@H](CO)c1ccccc1)c1ccc2c(c1)NC(=O)c1ccccc1S2 [Compound 1258] | 105 | 12 |  |
| O=C(NCC1CCCCC1)c1ccc2c(c1)NC(=O)c1ccccc1S2 [Compound 1169] | 107 | 39 |  |

| Compound | AD38 Viability Normalized Result (CPAM/DMSO %) at 10 μM (AD38 cells) [%] | activity at 10 µM [1] [%] | AD38 Viral Load (CpAM/DMSO %) at 10 μM [1] [%] |
| --- | --- | --- | --- |
| Cc1ccc(CCNC(=O)c2ccc3c(c2)NC(=O)c2ccccc2S3)cc1 [Compound 1184] | 0 | 1 |  |
| Cc1c(C(=O)NCc2cnco2)ccc2c1NC(=O)c1ccccc1S2 [Compound 1514] | 84 | 13 |  |
| CN(C)C(=O)c1ccc2c(c1)Sc1ccc(C(=O)NCCC3CCCCC3)cc1NC2=O [Compound 1278, N-(2-cyclohexylethyl)-N^3,N^3-dimethyl-11-oxo-10, 11-dihydrodibenzo [b,f] [1,4] thiazepine-3,8-dicarboxamide] | 88 |  | 3 |
| O=C(Nc1cccc(-c2cncs2)c1)c1ccc2c(c1)NC(=O)c1cc(F)ccc1S2 [Compound 1441] | 90 | 28 |  |
| CN1C(=O)c2ccccc2Sc2ccc(C(=O)NCc3cncs3)cc21 [Compound 1573] | 126 | 46 |  |
| COc1cc2c(cc1C(=O)NCCC1CCCCC1)NC(=O)c1ccccc1S2 [Compound 1287] | 96 | 11 |  |
| O=C(NCc1cnco1)c1ccc2c(c1)NC(=O)c1cc(F)ccc1S2 [Compound 1311] | 95 | 8 |  |
| O=C(Nc1ccc(F)cc1Cl)c1ccc2c(c1)NC(=O)c1cc(F)ccc1S2 [Compound 1323] | 60 | 96 |  |
| Cc1c(C(=O)Nc2cccc(-c3ccccc3)c2)ccc2c1NC(=O)c1ccccc1S2 [Compound 1496] | 18 | 2 |  |
| O=C(Nc1ccc(Cl)cc1F)c1ccc2c(c1)NC(=O)c1cc(F)ccc1S2 [Compound 1334] | 83 | 33 |  |
| CCc1cccc(CNC(=O)c2ccc3c(c2)NC(=O)c2ccccc2S3)c1 [Compound 1283] | 97 | 1 |  |
| Cc1nnc(CCNC(=O)c2ccc3c(c2)NC(=O)c2ccccc2S3)s1 [Compound 1567] | 109 | 1 |  |
| O=C(NCCc1cncs1)c1ccc2c(c1)NC(=O)c1cc(F)ccc1S2 [Compound 1418] | 73 | 12 |  |
| O=C1Nc2cc(S(=O)(=O)NCc3ccc(F)cc3)ccc2Sc2ccccc21 [Compound 1415] | 77 | 27 |  |
| O=C(O)c1ccc(-c2cccc(NC(=O)c3ccc4c(c3)NC(=O)c3cc(F)ccc3S4)c2)cc1 [Compound 1419, 3′-(2-fluoro-11-oxo-10, 11-dihydrodibenzo [b,f] [1,4]thiazepine-8-carboxamido)-[1, 1′-biphenyl]-4-carboxylic acid] | 89 | 113 |  |
| O=C(Nc1nc2ccccc2s1)c1ccc2c(c1)NC(=O)c1cc(F)ccc1S2 [Compound 1339] | 70 | 113 |  |
| O=C(Nc1cccc(-c2cccnc2)c1)c1ccc2c(c1)NC(=O)c1cc(F)ccc1S2 [Compound 1400] | 105 | 34 |  |
